± gives the expanded uncertainty stated by the source.
Key:
[1] = Crystal; Adiabatic calorimetry
[2] = Molar enthalpy of transition or fusion; conditions: Crystal; Adiabatic calorimetry

Triple point temperature [1]: 544.56 ± 0.005 K
Molar enthalpy of transition or fusion [2]: 2.655 ± 0.00406 kcal/mol
SMILES: [Bi] [bismuth]

From the NIST ThermoML archive (doi:10.1021/je049913p)
